Here are results for four compounds from ChEMBL document CHEMBL4665878, “A new naphthalene derivative with anti-amyloidogenic activity as potential therapeutic agent for Alzheimer's disease” (Bioorg Med Chem, 2020).

The target of data set [1] is Amyloid-beta precursor protein (Homo sapiens) (UniProt P05067). The data set can be described thus: Inhibition of Abeta(1 to 42) peptide aggregation in immortalized human microglia with SV40 assessed as reduction in fluorescence intensity at 0.001 to 50 micromol/L and measured after 48 hrs by thiazine red staining method. In kind it is tissue-based. Particulars: dose micromol/L 0.001-50, time 48.0 hrs.
Chain of Amyloid-beta precursor protein (Homo sapiens) (P05067 whole entry): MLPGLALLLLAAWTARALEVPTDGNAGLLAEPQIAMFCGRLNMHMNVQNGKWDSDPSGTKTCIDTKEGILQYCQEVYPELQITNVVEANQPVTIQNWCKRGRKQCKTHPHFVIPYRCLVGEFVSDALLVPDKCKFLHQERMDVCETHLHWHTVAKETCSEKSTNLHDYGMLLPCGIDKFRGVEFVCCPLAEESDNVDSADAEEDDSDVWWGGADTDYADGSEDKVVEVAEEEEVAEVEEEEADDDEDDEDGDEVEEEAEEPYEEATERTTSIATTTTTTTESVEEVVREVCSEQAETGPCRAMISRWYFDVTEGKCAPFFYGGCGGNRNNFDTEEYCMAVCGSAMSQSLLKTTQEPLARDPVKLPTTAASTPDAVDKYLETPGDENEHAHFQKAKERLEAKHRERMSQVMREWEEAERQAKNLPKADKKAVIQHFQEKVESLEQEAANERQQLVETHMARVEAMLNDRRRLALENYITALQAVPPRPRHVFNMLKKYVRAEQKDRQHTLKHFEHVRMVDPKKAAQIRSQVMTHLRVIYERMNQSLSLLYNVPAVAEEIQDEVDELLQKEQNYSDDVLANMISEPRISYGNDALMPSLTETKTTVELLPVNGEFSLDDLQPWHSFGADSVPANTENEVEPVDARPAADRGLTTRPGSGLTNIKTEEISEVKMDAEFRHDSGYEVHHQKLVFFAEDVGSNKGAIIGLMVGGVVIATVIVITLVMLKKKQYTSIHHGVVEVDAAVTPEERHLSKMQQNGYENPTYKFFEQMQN

For a further data set, the system named is Astrocyte. The data set can be described thus: Cytotoxicity against C57BL/J6 mouse astrocyte assessed as cell viability after 24 hrs by MTT assay. It counts as cell-based. For orientation: Tetrazolium assays rely on reduction of a dye to a coloured formazan, in cell work by metabolically active cells.
Data set [2] concerns the target Amyloid-beta precursor protein (Homo sapiens) (UniProt P05067). The data set can be described thus: Inhibition of Abeta(1 to 42) peptide aggregation in immortalized human microglia with SV40 assessed as reduction in fluorescence intensity at 1 nM and measured after 48 hrs by thiazine red staining method. In kind it is tissue-based.
The nature of data set [3]: Ex vivo binding affinity to amyloid beta (1 to 42) in 3xTg-AD transgenic APP/PS1 mouse brain section assessed as binding constant after 40 mins by autoradiography. It counts as tissue-based.
Data set [4] is described as follows: Octanol/PBS partition co-efficient, log P of compound. In kind it is physicochemical.
Data set [5] has as its system Mus musculus. The data set can be described thus: Cognitive enhancing effect in 3xTg-AD transgenic mouse harboring human PS1M146V/APPSWE/tauP301L assessed as number of entries to the target quadrant at 1 mg/kg, po for 8 weeks measured by Morris water maze test. It counts as functional, organism-based.
In data set [6] the test system is Mus musculus. The data set can be described thus: Cognitive enhancing effect in female 3xTg-AD transgenic mouse harboring human PS1M146V/APPSWE/tauP301L assessed as escape latency time at 1 mg/kg, po for 8 weeks by Morris water maze test. In kind it is functional, organism-based.
Data set [7] relates to Mus musculus. The data set can be described thus: Cognitive enhancing effect in female 3xTg-AD transgenic mouse harboring human PS1M146V/APPSWE/tauP301L assessed as time spent in the target quadrant at 1 mg/kg, po for […] by Morris water maze test. In kind it is functional, organism-based. As to conditions: time 8.0 weeks.
Data set [8] has as its system Mus musculus. The data set is described as follows: Reduction in amyloid beta plaques in po dosed 3xTg-AD transgenic mouse brain hippocampus subiculum using BAM-10 primary antibody by immunohistochemical assay relative to 3xTg-AD-non T. In kind it is functional, organism-based.
In data set [9] the test system is Mus musculus. The data set is described as follows: Reduction in amyloid fibril elongation in po dosed 3xTg-AD transgenic mouse brain hippocampus subiculum using BAM-10 primary antibody by immunohistochemical assay relative to 3xTg-AD-non T. It counts as functional, organism-based.
Data set [10] concerns Mus musculus. The data set is described as follows: Cognitive enhancing effect in female 3xTg-AD transgenic mouse harboring human PS1M146V/APPSWE/tauP301L assessed as latency to enter to the target quadrant at 1 mg/kg, po for 8 weeks by Morris water maze test. It counts as functional, organism-based.
Data set [11] addresses Amyloid-beta precursor protein (Homo sapiens) (UniProt P05067). The data set is described as follows: Inhibition of Abeta(1 to 42) peptide aggregation in immortalized human microglia with SV40 assessed as reduction in fluorescence intensity at 1 uM and measured after 48 hrs by thiazine red staining method.

The source made the active and inactive calls. The calls are words filed in the database; no cut-off is given here.

Take `O=C(O)CCCCCNC(=O)CCC(=O)Nc1cccc2ccccc12`: the inhibition result in [1] and in [2] was “Active” each time. The IC50 in the data set on Astrocyte amounted to 433 µM.

Take `CNc1ccc(/C=C/c2ccc(OCCOCCOCCF)cc2)cc1` [FLORBETABEN]: the Kd in [3] was 0.016 µM.

`O=C(O)CCNC(=O)CCC(=O)Nc1cccc2ccccc12`: the inhibition entry in data set [1] and in [2] was “Active” each time. For the same compound, the IC50 in the data set on Astrocyte came out at 874 µM.

Regarding `CSC(=S)NCCNC(=O)CCC(=O)Nc1cccc2ccccc12`, the logP in [4] was 1.77. Further, the result in the data set with Mus musculus [5] and in the data set on Mus musculus [8] was Active. Moreover, the outcome with Mus musculus [6], in the data set with Mus musculus [7] and in the data set on Mus musculus [10] was inactive. The inhibition entry (with Mus musculus [9]; in data set [1]; in data set [11]) was “Active” throughout. In addition, the Kd in data set [3] came out at 0.0158 µM. Besides, in the data set on Astrocyte, the IC50 was 195 µM.

Usually IC50 stands for the point on the concentration scale where inhibition reaches its midpoint. In general, logP refers to a log measure of how a compound divides between an organic and an aqueous phase.
